In data set [1] the test system is other proteinases of the blood clotting cascade. In words: specificity against proteinases of the blood clotting cascade. In kind it is biochemical.
Data set [2] deals with T1, thrombin (Homo sapiens, UniProt P00734). As to the kind of experiment: dissociation constant of the complex with thrombin. In kind it is binding. The conditions noted are these: read-out: dissociations constant Ki of the complex with thrombin.
For data set [3], the target named is T1, thrombin. In words: specific antithrombin activity. In kind it is biochemical.

From US4767742A, “Hirudin-PA and its derivatives, process for manufacturing these and the use of these substances” (Plantorgan-Werk Heinrich G. F. Christensen, KG, priority 1984, dated 1988) come the findings set out here.

As usually defined, the Ki is the dissociation constant of the complex between target and ligand, obtained from inhibition or displacement. In the case of hirudin, the “inhibition of other proteinases of the blood clotting cascade” value in data set [1] is listed as “inhibits no other proteinases of the blood clotting cascade”. The inhibition constant (Ki) at thrombin [2] is about 0.03 nM.

On to hirudin-PA, for which the specific antithrombin activity in the data set with thrombin [3] is listed as 680-720 IU/mg. Also, the Ki at thrombin [2] was 0.04 nM.
